Data: patent US10472341B2, “Bicyclic tetrahydrothiazepine derivatives useful for the treatment of neoplastic and/or infectious diseases” (APEIRON BIOLOGICS AG, priority 2015, dated 2019)
Where two headings read alike, the source gives them in different places.

Experiments:
[1] = tested on: aCD3/aCD28-stimulated human PBMCs; assay: Cytokine production in aCD3/aCD28 stimulated human PBMCs; assay type: cell-based; settings: PBMC, 18 h
Experimental: In order to determine the immune modulatory effect of compounds of compounds of the present invention in human PBMCs, compounds were assessed in the following assay set-up:
Buffy coats were obtained from a local hospital, diluted 3 fold with PBS and layered onto an isotonic Ficoll separating solution d=1.077 g/mL in 50 mL centrifuge tubes. The tubes were centrifuged at 914 g for 25 min at room temperature with the brakes off. The PBMC layer was removed and washed twice with ice-cold PBS. Erythrocytes were lysed by addition of ddH2O and cells were resuspended in X-Vivo15 (Lonza).
1e6 cells/mL were stimulated with soluble anti CD3/CD28 antibodies (1 μg/mL both, clones OKT3 and 28.2) in the presence of described compounds. Cells were incubated for 18 h at 37° C., 5% CO2. Assay plates were centrifuged at 400 g for 5 min and supernatants harvested. Cytokine concentration in tissue culture supernatants were determined with MSD or HTRF kits (MSD and Cisbio), according to manufacturer's instructions.

[2] = tested on: aCD3/aCD28-stimulated human CD4+-T-cells; assay: IL-2 production and activation markers in aCD3/aCD28 stimulated isolated human CD4+-T-cells; assay type: cell-based; settings: IL-2 production at 3 μM compound
Experimental: • Buffy coat content was transferred to sterile plastic bottle and filled up to 480 ml with PBS, and distributed equally to 16×50 ml tubes (30 ml/tube) • Underlayed with ˜11 ml Lymphoprep and centrifuged 20 min (2200 rpm) • The interphase containing lymphocytes was taken off with transfer pipette, cells were washed twice with PBS and pooled to one tube to determine cell count (Coulter Diff ACT) Isolation of Immune Cell Subfractions from PBMCs by MACS • PBMCs were resuspended in MACS buffer (80 μl MACS-buffer/10^7 cells) and cells were isolated with Auto-MACS device using respective kits following manufacturer's recommendations TCR Stimulation and Measurement of T Cell Activation
Isolated T cells were plated in Xvivo medium at 1.5*10 ^5 cells per in 96 well culture plates and TCR-stimulated with anti-CD3/28 mAbs in the presence of compound as indicated. Cytokine production was determined at 24 h or 48 h following TCR stimulation in cell culture supernatants using commercially available ELISA kits (BD and eBioscience) as recommended by the manufacturer. T cell proliferation and CD25 expression (CD25-PC5 reagent purchased from Beckman Coulter) was determined by flow cytometry (Beckman-Coulter FC500) and analysed with Kaluza Software. For measurement of CD69 expression, isolated CD4 and CD8 T cells were plated in Xvivo medium at […] per in 96 well culture plates and TCR-stimulated with anti-CD3/28 mAbs in the presence of compound. CD69 expression was determined at 24 h following TCR stimulation by flow cytometry (CD4eF450, CD8APCeF780 and CD69-PC7 reagent purchased from eBioscience) and analysed with Kaluza Software.
Buffy coats were obtained from Austrian Red Cross, diluted 3 fold with PBS and layered onto an isotonic Ficoll separating solution d=1.077 g/m in 50 ml centrifuge tubes. The tubes were centrifuged at 914 g for 25 min at room temperature with the brakes off. The PBMC layer was removed and washed twice with ice-cold PBS. CD4 T cells were isolated using CD4 microbeads (Milteny) and the AutoMACS device following manufacturer's instructions.
Compound examples of the present invention were classified according to the following activity criteria and are listed in Table 4a: • Activity Class A: IL-2 production at 3 μM compound concentration >10 ng/mL • Activity Class B: IL-2 production at 3 μM compound concentration between 2-10 ng/mL • Activity Class C: IL-2 production at 3 μM compound concentration between 2-fold increase as compared to mean IL-2 production of stimulated cells in the absence of compounds and <2 ng/mL

[3] = enhancement of IFN-γ production, read-out: Activity Class IFN-γ
[4] = enhancement of IL-2 production, read-out: Activity Class IL-2

| SMILES | EC50 [1, 3] [µM] | EC50 [1, 4] [µM] | Activity Class CD4+ [2] |
| --- | --- | --- | --- |
| CCCCNC(=O)c1ccc2c(c1)N(Cc1ccc(C(C)(C)C)cc1)C(=O)[C@@H](N)CS2.Cl [Example 2, (3R)-3-amino-N-butyl-5-[(4-tert-butylphenyl)methyl]-4-oxo-2,3,4,5-tetrahydro-1,5-benzothiazepine-7-carboxamide hydrochloride] | < 1.58 | 1.58 to 5.01 | B (IL-2 production at 3 μM compound concentration between 2-10 ng/mL) |
| CCCCNC(=O)c1ccc2c(c1)N(Cc1ccc(OC(F)(F)F)cc1)C(=O)[C@@H](N)CS2.Cl [Example 3, (3R)-3-amino-N-butyl-4-oxo-5-{[4-(trifluoromethoxy)phenyl]methyl}-2,3,4,5-tetrahydro-1,5-benzothiazepine-7-carboxamide hydrochloride] | 1.58 to 5.01 | 1.58 to 5.01 | B (IL-2 production at 3 μM compound concentration between 2-10 ng/mL) |
| CC(C)NC(=O)c1ccc2c(c1)N(Cc1ccc(C(C)(C)C)cc1)C(=O)[C@@H](N)CS2.Cl [Example 4, (3R)-3-amino-5-[(4-tert-butylphenyl)methyl]-4-oxo-N-(propan-2-yl)-2,3,4,5-tetrahydro-1,5-benzothiazepine-7-carboxamide hydrochloride] | > 5.01 | 1.58 to 5.01 | C (IL-2 production at 3 μM compound concentration between 2-fold increase as compared to mean IL-2 production of stimulated cells in the absence of compounds and <2 ng/mL) |
| CCCCNC(=O)c1ccc2c(c1)N(Cc1ccc(C(N)=O)cc1)C(=O)[C@@H](N)CS2.Cl [Example 47, (3R)-3-amino-N-butyl-5-[(4-carbamoylphenyl)methyl]-4-oxo-2,3,4,5-tetrahydro-1,5-benzothiazepine-7-carboxamide hydrochloride] | – | – | C (IL-2 production at 3 μM compound concentration between 2-fold increase as compared to mean IL-2 production of stimulated cells in the absence of compounds and <2 ng/mL) |
| C[C@H](NC(=O)c1ccc2c(c1)N(Cc1ccc(Cl)cc1)C(=O)[C@@H](N)CS2)c1ccc(F)cc1.Cl [Example 49, (3R)-3-amino-5-[(4-chlorophenyl)methyl]-N-[(1S)-1-(4-fluorophenyl)ethyl]-4-oxo-2,3,4,5-tetrahydro-1,5-benzothiazepine-7-carboxamide hydrochloride] | – | – | C (IL-2 production at 3 μM compound concentration between 2-fold increase as compared to mean IL-2 production of stimulated cells in the absence of compounds and <2 ng/mL) |
| Cl.N[C@H]1CSc2cc(F)c(C(=O)NNc3ccc(F)cc3)cc2N(Cc2ccc(Cl)cc2)C1=O [Example 52, (3R)-3-amino-5-[(4-chlorophenyl)methyl]-8-fluoro-N′-(4-fluorophenyl)-4-oxo-2,3,4,5-tetrahydro-1,5-benzothiazepine-7-carbohydrazide hydrochloride] | – | – | C (IL-2 production at 3 μM compound concentration between 2-fold increase as compared to mean IL-2 production of stimulated cells in the absence of compounds and <2 ng/mL) |
| CC(C)CONC(=O)c1ccc2c(c1)N(Cc1ccc(Cl)cc1)C(=O)[C@@H](N)CS2.Cl [Example 62, (3R)-3-amino-5-[(4-chlorophenyl)methyl]-N-(2-methylpropoxy)-4-oxo-2,3,4,5-tetrahydro-1,5-benzothiazepine-7-carboxamide hydrochloride] | – | – | C (IL-2 production at 3 μM compound concentration between 2-fold increase as compared to mean IL-2 production of stimulated cells in the absence of compounds and <2 ng/mL) |
| Cl.N[C@H]1CS(=O)(=O)c2cc(F)c(C(=O)NOc3ccccc3)cc2N(Cc2ccc(Cl)cc2)C1=O [Example 76, (3R)-3-amino-5-[(4-chlorophenyl)methyl]-8-fluoro-1,1,4-trioxo-N-phenoxy-2,3,4,5-tetrahydro-1λ^6,5-benzothiazepine-7-carboxamide hydrochloride] | – | – | C (IL-2 production at 3 μM compound concentration between 2-fold increase as compared to mean IL-2 production of stimulated cells in the absence of compounds and <2 ng/mL) |
| CC(C)CONC(=O)c1ccc2c(c1)N(Cc1ccc(Cl)cc1)C(=O)[C@@H](N)CS2(=O)=O.Cl [Example 81, (3R)-3-amino-5-[(4-chlorophenyl)methyl]-N-(2-methylpropoxy)-1,1,4-trioxo-2,3,4,5-tetrahydro-1λ^6,5-benzothiazepine-7-carboxamide hydrochloride] | – | – | C (IL-2 production at 3 μM compound concentration between 2-fold increase as compared to mean IL-2 production of stimulated cells in the absence of compounds and <2 ng/mL) |
| CCCONC(=O)c1ccc2c(c1)N(Cc1ccc(Cl)cc1)C(=O)[C@@H](N)CS2(=O)=O.Cl [Example 82, (3R)-3-amino-5-[(4-chlorophenyl)methyl]-1,1,4-trioxo-N-propoxy-2,3,4,5-tetrahydro-1λ^6,5-benzothiazepine-7-carboxamide hydrochloride] | – | – | C (IL-2 production at 3 μM compound concentration between 2-fold increase as compared to mean IL-2 production of stimulated cells in the absence of compounds and <2 ng/mL) |
| Cl.N[C@H]1CS(=O)(=O)c2ccc(C(=O)NOC3CCCCC3)cc2N(Cc2ccc(Cl)cc2)C1=O [Example 90, (3R)-3-amino-5-[(4-chlorophenyl)methyl]-N-(cyclohexyloxy)-1,1,4-trioxo-2,3,4,5-tetrahydro-1λ^6,5-benzothiazepine-7-carboxamide hydrochloride] | – | – | A (IL-2 production at 3 μM compound concentration >10 ng/mL) |
| Cl.N[C@H]1CS(=O)(=O)c2ccc(C(=O)NOCC3CCCCC3)cc2N(Cc2ccc(Cl)cc2)C1=O [Example 91, (3R)-3-amino-5-[(4-chlorophenyl)methyl]-N-(cyclohexylmethoxy)-1,1,4-trioxo-2,3,4,5-tetrahydro-1λ^6,5-benzothiazepine-7-carboxamide hydrochloride] | – | – | B (IL-2 production at 3 μM compound concentration between 2-10 ng/mL) |
| CC(C)(C)ONC(=O)c1ccc2c(c1)N(Cc1ccc(Cl)cc1)C(=O)[C@@H](N)CS2(=O)=O.Cl [Example 97, (3R)-3-amino-N-(tert-butoxy)-5-[(4-chlorophenyl)methyl]-1,1,4-trioxo-2,3,4,5-tetrahydro-1λ^6,5-benzothiazepine-7-carboxamide hydrochloride] | – | – | C (IL-2 production at 3 μM compound concentration between 2-fold increase as compared to mean IL-2 production of stimulated cells in the absence of compounds and <2 ng/mL) |
| CCCCNC(=O)c1cc2c(cc1F)SC[C@H](N)C(=O)N2Cc1ccc2ccccc2n1.Cl.Cl [Example 112, (3R)-3-amino-N-butyl-8-fluoro-4-oxo-5-(quinolin-2-ylmethyl)-2,3,4,5-tetrahydro-1,5-benzothiazepine-7-carboxamide dihydrochloride] | – | – | C (IL-2 production at 3 μM compound concentration between 2-fold increase as compared to mean IL-2 production of stimulated cells in the absence of compounds and <2 ng/mL) |
| COc1ccc(CNC(=O)c2cc3c(cc2F)SC[C@H](NCCCCCNC(=O)OC(C)(C)C)C(=O)N3Cc2ccc(Cl)cc2)cc1 [Example 115, tert-butyl N-(5-{[(3R)-5-[(4-chlorophenyl)methyl]-8-fluoro-7-{[(4-methoxyphenyl)methyl]carbamoyl}-4-oxo-2,3,4,5-tetrahydro-1,5-benzothiazepin-3-yl]amino}pentyl)carbamate] | – | – | C (IL-2 production at 3 μM compound concentration between 2-fold increase as compared to mean IL-2 production of stimulated cells in the absence of compounds and <2 ng/mL) |
